Data from patent US20100261682A1, “Method and Means for the Treatment of Cachexia” (Bioneris AB, priority 2007, published 2010).

Experiments:
[1] = test system: Angiotensin II induced chymotrypsin like activity in C2C12 myotubes; experiment: Angiotensin II induced chymotrypsin-like activity in C2C12 myotubes; assay type: cell-based, murine; conditions: AT 100 μM
Source text: Protein degradation induced by PIF is mediated through up-regulation of the ubiquitin-proteasome pathway (Tisdale et al., 2004, Br. J. Cancer). […] A hexanoyl ester of AT (lipid soluble AT) has been produced as a slow release form, after hydrolysis by esterase.

[2] = test system: gastrocnemius muscle protein synthesis and degradation; experiment: Protein synthesis and degradation in gastrocnemius muscle of MAC16 tumour-bearing mice; assay type: in vivo, NMRI mice; conditions: 40 mg/kg s.c., 3 times per day; p<0.001 vs control
Description: (§1) Administration of alpha-trinositol. Mice (n=6) bearing the MAC16 tumour were treated with AT (40 mg/kg) s.c., 3 times per day, for 5 days, while a control group received PBS. Protein synthesis and degradation were determined by the incorporation and release of L-[2,6-^3H]phenylalanine, as described in Smith et al., Cancer Res., 2005; 65:277-83. On the fourth day of treatment half of the group administered 0.4 mmol/L L-[2,6-^3H]phenylalanine in PBS (100 μl) by i.p. administration.
Protein analysis. After 24 h the animals were terminated and the gastrocnemius muscle was removed, washed with PBS and RPMI 1640, and the release of radioactivity during incubation for 2 h in RPMI 1640 was determined. Protein bound activity was determined by homogenising the muscles in 2% perchloric acid, and determining the radioactivity in the precipitate. Protein degradation was calculated by dividing the amount of radioactivity released into the medium over a 2 h period by the specific activity of the protein-bound radioactivity. To determine protein synthesis gastrocnemius muscles were incubated for 2 h in RMPI 1640, without phenol red, in the presence of L-[2,6-^3H]phenylalanine (37 MBq), and under an atmosphere of O2/CO2 (19:1). […] The rate of protein synthesis was calculated by dividing the protein-bound radioactivity by the acid-soluble material.

20S proteasome = 20S proteasome 'chymotrypsin-like' enzyme activity in gastrocnemius muscle; assay type: in vivo, NMRI mice; conditions: 40 mg/kg s.c., 3 times per day; after 4 days treatment
Description: as §1
Determination of proteasome activity The activity of the 20S proteasome was determined as the ‘chymotrypsin-like’ enzyme activity, the predominant proteolytic activity of the β5 subunits of the proteasome. Gastrocnemius muscles were rinsed with ice-cold PBS and homogenised in 20 mmol/L Tris-HCl (pH 7.5), 2 mmol/L ATP, 5 mmol/L MgCl2 and 1 mmol/L DTT followed by sonication. The sonicate was centrifuged for 10 minutes at 18,000×g at 4° C., and enzyme activity in the supernatant was determined by the method of Orino et al., FEBS Lett., 1991; 284:206-10, by determining the release of amino methyl coumarin (AMC) from the fluorogenic substrate LLVY-AMC. Activity was measured in the absence and presence of the specific proteasome inhibitor lactacystin (10 mmoles/L). Only lactacystin suppressible activity was considered to be proteasome specific.

p42 = experiment: Western blot of gastrocnemius muscle: p42; assay type: in vivo, NMRI mice; conditions: 40 mg/kg s.c., 3 times per day
Description: as §1
(§2) Western blot analysis Gastrocnemius muscle (10 mg) was homogenised in Phosphosafe™ Extraction Reagent (500 μl) and centrifuged at 15000 g for 15 min. Samples of the cytosolic proteins (5 μg) were loaded on either a 10% (mTOR, myosin, eIF4E and eIF4G) 12% (PKR, eIF2α and actin) or 15% (4E-BP1) sodium dodecylsulphate-polyacrylamide gel (SDS-PAGE) and electrophoresed at 180 V for approximately 1 h. The extent of phosphorylation of 4E-BP1, and the association of 4E-BP1 and eIF4G with eIF4E was determined by Western blotting when eIF4E was extracted from the muscle samples by m^7GTP-Sepharose 4B-affinity binding, as previously described Eley ey al., Biochem J., 2007; 407:113-20, by loading 20 μg of protein. […] Blots were scanned by a densitometer to quantify differences.

eIF4G.eIF4E complex = experiment: Western blot after m7GTP-Sepharose extraction: active eIF4G.eIF4E complex; assay type: in vivo, NMRI mice; conditions: 40 mg/kg
Description: as §1, §2

## O=P(O)(O)O[C@@H]1[C@H](OP(=O)(O)O)[C@H](O)[C@@H](O)[C@H](O)[C@H]1OP(=O)(O)O [alpha-trinositol, 1-D-Myo-inositol 1,2,6-triphosphate]
[1]
  effect on Ang II-induced chymotrypsin-like enzyme activity: completely attenuated
[2]
  decrease in protein degradation in the gastrocnemius muscle: 20%
  increase of protein synthesis in the gastrocnemius muscle: 50%
20S proteasome
  chymotrypsin activity (20S proteasome activity) in gastrocnemius muscle: reduced down to levels found in normal non-tumour bearing mice
p42
  expression of p42 in gastrocnemius muscle: down-regulates
eIF4G.eIF4E complex
  tumour-induced decrease in formation of the active eIF4G.eIF4E complex: completely attenuated
